Here are results for 8 compounds from US10301288B2, “Kinase inhibitors” (Topivert Pharma Limited, priority 2013, dated 2019).

In one assay the target is p38 MAPKα (Homo sapiens (Human), UniProt Q16539). As to the kind of experiment: p38 MAPKα enzyme inhibition (FRET, Method 2). Format: biochemical. The protocol: (§1) The enzyme inhibitory activities of compounds disclosed herein are determined by FRET using synthetic peptides labelled with both donor and acceptor fluorophores (Z-LYTE, Invitrogen Ltd., Paisley, UK).
The inhibitory activities of test compounds against the p38 MAPKα isoform (MAPK14: Invitrogen), are evaluated indirectly by determining the level of activation/phosphorylation of the down-stream molecule, MAPKAP-K2. The p38 MAPKα protein (80 ng/mL, 2.5 μL) is mixed with the test compound (2.5 μL of either 4 μg/mL, 0.4 μg/mL, 0.04 μg/mL or 0.004 μg/mL) for 2 hr at RT. […] The mixture is incubated for 1 hr at RT. Development reagent (protease, 5 μL) is added for 1 hr prior to detection in a fluorescence microplate reader (Varioskan® Flash, ThermoFisher Scientific).
(§2) In all cases, the site-specific protease cleaves non-phosphorylated peptide only and eliminates the FRET signal. Phosphorylation levels of each reaction are calculated using the ratio of coumarin emission (donor) over fluorescein emission (acceptor), for which high ratios indicate high phosphorylation and low ratios indicate low phosphorylation levels.

The target in the next assay is Syk (Homo sapiens (Human), UniProt P43405). The experiment in a line: Syk enzyme inhibition (FRET). Format: biochemical. How it is done:
as §1
(§3) The inhibitory activities of compounds of the invention against c-Src and Syk enzymes (Invitrogen), are evaluated in a similar fashion to that described hereinabove. The relevant enzyme (3000 ng/mL or 2000 ng/mL respectively, 2.5 μL) is incubated with the test compound (either 4 μg/mL, 0.4 μg/mL, 0.04 μg/mL, or 0.004 μg/mL, 2.5 μL each) for 2 hr at RT. The FRET peptides (8 μM. 2.5 μL), and appropriate ATP solutions (2.5 μL, 800 μM for c-Src, and 60 μM ATP for Syk) are then added to the enzymes/compound mixtures and incubated for 1 hr. Development reagent (protease, 5 μL) is added for 1 hr prior to detection in a fluorescence microplate reader (Varioskan® Flash, ThermoFisher Scientific).
as §2

The next assay relates to HT29 cells. The experiment in a line: (d) IL-1β-induced IL-8 release in HT29 cells. Type of assay: cell-based. The following applies: Homo sapiens, HT-29, read-out: IC50 for Inhibition of Cytokine Release, IL-8. The protocol: HT29 cells, a human colon adenocarcinoma cell line, are plated in a 96 well plate (24 hrs) and pre-treated with compounds at the desired concentration for 2 hours before addition of 5 ng/ml of IL-1β (Abeam) for 24 hours. Supernatants are harvested for IL-8 quantification by Sandwich ELISA (Duo-set, R&D System). The IC50 is determined from the dose response curve.

A further assay concerns the target c-Src (Homo sapiens (Human), UniProt P12931). As to the kind of experiment: c-Src enzyme inhibition (FRET). Format: biochemical. The protocol:
as §1, §3, §2

In another assay the target is GSK3α (Homo sapiens (Human), UniProt P49840). The experiment in a line: GSK 3α enzyme inhibition (FRET, Method 2). Format: biochemical. The protocol:
as §1
The inhibitory activities of compounds of the invention against the GSK 3α enzyme isoform (Invitrogen), are evaluated by determining the level of activation/phosphorylation of the target peptide. The GSK3-α protein (500 ng/mL, 2.5 μL) is mixed with the test compound (2.5 μL at either 4 μg/mL, 0.4 μg/mL, 0.04 μg/mL, or 0.004 μg/mL) for 2 hr at RT. The FRET peptide (8 μM, 2.5 μL), which is a phosphorylation target for GSK3α, and ATP (40 μM, 2.5 μL) are then added to the enzyme/compound mixture and the resulting mixture incubated for 1 hr. Development reagent (protease, 5 μL) is added for 1 hr prior to detection in a fluorescence microplate reader (Varioskan® Flash, ThermoFisher Scientific).
as §2

A further assay relates to PBMCs. The experiment in a line: (b) LPS-induced TNFα/IL-8 release in PBMC cells. Type of assay: cell-based. The following applies: Homo sapiens, read-out: IC50 for Inhibition of Cytokine Release, IL-8. How it is done:
Peripheral blood mononuclear cells (PBMCs) from healthy subjects are separated from whole blood using a density gradient (Lymphoprep, Axis-Shield Healthcare). The PBMCs are seeded in 96 well plates and treated with compounds at the desired concentration for 2 hours before addition of 1 ng/ml LPS (Escherichia Coli 0111:B4 from Sigma Aldrich) for 24 hours under normal tissue culture conditions (37° C., 5% CO2). The supernatant is harvested for determination of IL-8 and TNFα concentrations by sandwich ELISA (Duo-set, R&D systems) and read on the fluorescence microplate reader (Varioskan® Flash, ThermoFisher Scientific).

Another assay concerns β-catenin. The experiment in a line: (m) Accumulation of β catenin in d-U937 cells. The following applies: Reference Compound at 1 μg/mL defined as 100%. Type of assay: cell-based, human. How it is done:
U937 cells, a human monocytic cell line, are differentiated into macrophage-type cells by incubation with PMA; (100 ng/mL) for between 48 to 72 hr. The cells are then incubated with either final concentrations of test compound or vehicle for 18 hr. The induction of β-catenin by the test compounds is stopped by replacing the media with 4% formaldehyde solution. Endogenous peroxide activity is neutralised by incubating with quenching buffer (100 μL, 0.1% sodium azide, 1% H2O2 in PBS with 0.05% Tween-20) for 20 min. The cells are washed with washing buffer (200 μL; PBS containing 0.05% Tween-20) and incubated with blocking solution (200 μL; 5% milk in PBS) for 1 hr, re-washed with washing buffer (200 μL) and then incubated overnight with anti-β-catenin antibody solution (50 μL) in 1% BSA/PBS (BD, Oxford, UK).
After washing with washing buffer (3×200 μL; PBS containing 0.05% Tween-20), cells are incubated with an HRP-conjugated secondary antibody solution (100 μL) in 1% BSA/PBS (Dako, Cambridge, UK) and the resultant signal is determined colourimetrically (OD: 450 nm with a reference wavelength of 655 nm) using TMB substrate (50 μL; R&D Systems, Abingdon, UK). This reaction is stopped by addition of 1N H2SO4 solution (50 μL). Cells are then washed with washing buffer and 2% crystal violet solution (50 μL) is applied for 30 min. After washing with washing buffer (3×200 μL), 1% SDS (100 μL) is added to each well and the plates are shaken lightly for 1 hr prior to measuring the absorbance at 595 nm (Varioskan® Flash, Thermo-Fisher Scientific).
The measured OD450-655 readings are corrected for cell number by dividing the OD450-655 by the OD595 readings.

The next assay deals with kinases. The experiment in a line: KinomeScan selectivity scores / number of hits. Type of assay: binding. How it is done:
These assays may be conducted by DiscoverX (formerly Ambit; San Diego, Calif.). The percentage inhibition produced by incubation with a test compound may be calculated relative to the non-inhibited control.

GSK3α, sequence (P49840 whole entry): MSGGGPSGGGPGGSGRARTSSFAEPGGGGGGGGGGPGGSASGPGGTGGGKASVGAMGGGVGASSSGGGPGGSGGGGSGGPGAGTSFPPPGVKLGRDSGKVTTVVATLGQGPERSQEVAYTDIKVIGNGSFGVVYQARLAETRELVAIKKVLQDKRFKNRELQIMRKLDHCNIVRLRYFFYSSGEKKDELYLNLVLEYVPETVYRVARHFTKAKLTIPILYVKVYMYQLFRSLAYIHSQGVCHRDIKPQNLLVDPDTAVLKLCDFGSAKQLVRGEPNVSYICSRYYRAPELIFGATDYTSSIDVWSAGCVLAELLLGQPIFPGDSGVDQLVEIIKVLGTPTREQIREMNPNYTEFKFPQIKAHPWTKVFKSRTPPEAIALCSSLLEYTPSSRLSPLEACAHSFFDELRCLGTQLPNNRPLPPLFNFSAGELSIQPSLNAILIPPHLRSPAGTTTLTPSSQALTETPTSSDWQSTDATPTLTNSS
p38 MAPKα, sequence (Q16539 whole entry, canonical isoform): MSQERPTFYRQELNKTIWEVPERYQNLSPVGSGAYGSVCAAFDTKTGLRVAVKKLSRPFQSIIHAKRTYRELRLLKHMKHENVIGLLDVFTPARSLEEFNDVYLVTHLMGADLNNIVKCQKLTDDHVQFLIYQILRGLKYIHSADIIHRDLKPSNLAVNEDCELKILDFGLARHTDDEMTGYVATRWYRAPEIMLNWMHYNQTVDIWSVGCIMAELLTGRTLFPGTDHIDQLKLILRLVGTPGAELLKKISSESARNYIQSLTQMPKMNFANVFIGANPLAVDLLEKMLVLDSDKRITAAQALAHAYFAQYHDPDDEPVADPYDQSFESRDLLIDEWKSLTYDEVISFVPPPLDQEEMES
c-Src, sequence (P12931 whole entry, looked up): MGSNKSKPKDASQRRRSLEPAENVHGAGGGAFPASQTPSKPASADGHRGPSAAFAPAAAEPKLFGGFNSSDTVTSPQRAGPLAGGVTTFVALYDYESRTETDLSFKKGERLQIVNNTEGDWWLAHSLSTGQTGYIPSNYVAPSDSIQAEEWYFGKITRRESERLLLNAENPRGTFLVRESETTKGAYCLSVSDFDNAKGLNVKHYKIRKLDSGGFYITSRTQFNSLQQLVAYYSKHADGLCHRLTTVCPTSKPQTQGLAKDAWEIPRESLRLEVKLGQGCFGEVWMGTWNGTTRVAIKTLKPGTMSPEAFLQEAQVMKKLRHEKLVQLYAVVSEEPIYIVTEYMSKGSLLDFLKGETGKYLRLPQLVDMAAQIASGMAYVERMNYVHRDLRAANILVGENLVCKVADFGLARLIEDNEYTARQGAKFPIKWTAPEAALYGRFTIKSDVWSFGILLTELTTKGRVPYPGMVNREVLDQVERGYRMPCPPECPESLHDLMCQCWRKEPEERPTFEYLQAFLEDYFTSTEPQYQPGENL

For orientation: IC50 means the concentration at which inhibition is half-maximal. For the compound `C#Cc1cc(Nc2cc(Oc3ccc(NC(=O)Nc4cc(C(C)(C)C)nn4-c4ccc(N(C)C)cc4)c4ccccc34)ccn2)cc(C(=O)NCCOCCOCCOC)c1` [Example 11, 3-((4-((4-(3-(3-(tert-Butyl)-1-(4-(dimethylamino)phenyl)-1H-pyrazol-5-yl)ureido)-naphthalen-1-yl)oxy)pyridin-2-yl)amino)-5-ethynyl-N-(2-(2-(2-methoxyethoxy)ethoxy)-ethyl)benzamide], the IC50 against p38 MAPKα is 766 nM; on Syk it was above 1210 nM; in the assay with HT29 cells, 6.2 nM; on c-Src, above 1210 nM; against GSK3α, 12100 nM; in the assay on PBMCs, 4.3 nM.

Consider `C#Cc1cc(Nc2nccc(Oc3ccc(NC(=O)Nc4cc(C(C)(C)C)nn4-c4ccc(C)cc4)c4c3CCCC4)n2)cc(C(=O)NCCOCCOCCOC)c1` [Example 12, 3-((4-((4-(3-(3-(tert-Butyl)-1-(p-tolyl)-1H-pyrazol-5-yl)ureido)-5,6,7,8-tetrahydronaphthalen-1-yl)oxy)pyrimidin-2-yl)amino)-5-ethynyl-N-(2-(2-(2-methoxyethoxy)-ethoxy)ethyl)benzamide], for which the values for the IC50 in the assay on HT29 cells, on GSK3α and with PBMCs were 10.9 nM, 12500 nM and 11.8 nM, respectively.

`C#Cc1cc(Nc2nccc(Oc3ccc(NC(=O)Nc4cc(C(C)(C)C)nn4-c4ccc(OC)cc4OC)c4ccccc34)n2)cc(C(=O)NCCOCCOCCOC)c1` [Example 13, 3-((4-((4-(3-(3-(tert-Butyl)-1-(2,4-dimethoxyphenyl)-1H-pyrazol-5-yl)ureido)naphthalen-1-yl)oxy)pyrimidin-2-yl)amino)-5-ethynyl-N-(2-(2-(2-methoxyethoxy)ethoxy)ethyl)-benzamide]: the IC50 against p38 MAPKα is 370 nM; at Syk it was 123 nM; with HT29 cells, 3.6 nM; on c-Src, 21 nM; against GSK3α, 2130 nM; in the assay on PBMCs, 4.6 nM. Further, the “% β-catenin induction” value with β-catenin (1 μg/mL) was −5%; in the assay on β-catenin (5 μg/mL), −2%; with β-catenin (10 μg/mL) it was −4%.

`C#Cc1cc(Nc2nccc(Oc3ccc(NC(=O)Nc4cc(C(C)(C)C)nn4-c4cccc(CP(C)(C)=O)c4)c4ccccc34)n2)cc(C(=O)NCCOCCOCCOC)c1` [Example 14, 3-((4-((4-(3-(3-(tert-Butyl)-1-(3-((dimethylphosphoryl)methyl)phenyl)-1H-pyrazol-5-yl)-ureido)naphthalen-1-yl)oxy)pyrimidin-2-yl)amino)-5-ethynyl-N-(2-(2-(2-methoxyethoxy)-ethoxy)ethyl)benzamide]: the IC50 against p38 MAPKα was found to be 88 nM; on Syk, 20 nM; in the assay with HT29 cells, 1.5 nM; at c-Src, 4 nM; against GSK3α it was 402 nM; in the assay with PBMCs, 1.5 nM.

On to `COCCOCCOCCNC(=O)c1cc(Nc2cc(Oc3ccc(NC(=O)Nc4cc(C(C)(C)C)nn4-c4cccc(CP(C)(C)=O)c4)c4ccccc34)ccn2)cc(OC)c1` [Example 15, 3-((4-((4-(3-(3-(tert-Butyl)-1-(3-((dimethylphosphoryl)methyl)phenyl)-1H-pyrazol-5-yl)-ureido)naphthalen-1-yl)oxy)pyridin-2-yl)amino)-5-methoxy-N-(2-(2-(2-methoxyethoxy)-ethoxy)ethyl)benzamide], for which the IC50 against p38 MAPKα came out at 34 nM; against Syk it was 57 nM; in the assay on HT29 cells it was 2 nM; on c-Src, 18 nM; against GSK3α it was 3200 nM; in the assay with PBMCs, 1.2 nM. Also, the “% β-catenin induction” value in the assay on β-catenin (1 μg/mL) is given as 4%; in the assay on β-catenin (5 μg/mL), 11%; with β-catenin (10 μg/mL), 27%.

In the case of `COCCOCCOCCNC(=O)c1cc(Nc2nccc(Oc3ccc(NC(=O)Nc4cc(C(C)(C)C)nn4-c4ccc(N(C)C)cc4)c4ccccc34)n2)cc(OC)c1` [Example 16, 3-((4-((4-(3-(3-(tert-Butyl)-1-(4-(dimethylamino)phenyl)-1H-pyrazol-5-yl)ureido)-naphthalen-1-yl)oxy)pyrimidin-2-yl)amino)-5-methoxy-N-(2-(2-(2-methoxyethoxy)-ethoxy)ethyl)benzamide], the IC50 at Syk is 27 nM; at c-Src, 15 nM; against GSK3α it was 646 nM; in the assay with PBMCs, 2.7 nM.

Regarding `C#Cc1cc(Nc2nccc(Oc3ccc(NC(=O)Nc4cc(C(C)(C)C)nn4-c4ccc(OC)cc4C)c4ccccc34)n2)cc(C(=O)NCCOCCOCCOC)c1` [Example 17, 3-((4-((4-(3-(3-(tert-Butyl)-1-(4-methoxy-2-methylphenyl)-1H-pyrazol-5-yl)ureido)-naphthalen-1-yl)oxy)pyrimidin-2-yl)amino)-5-ethynyl-N-(2-(2-(2-methoxyethoxy)-ethoxy)ethyl)benzamide], the IC50 at GSK3α stood at 12100 nM; with PBMCs it was 5 nM.

As for `COCC(=O)Nc1cc(Oc2ccc(NC(=O)Nc3cc(C(C)(C)C)nn3-c3ccc(C)cc3)c3ccccc23)ccn1` [Reference Compound, N-(4-(4-(3-(3-tert-butyl-1-p-tolyl-1H-pyrazol-5-yl)ureido)naphthalen-1-yloxy)pyridin-2-yl)-2-methoxyacetamide, reference compound], in the assay with kinases (50 nM), the “KinomeScan S(1) number of hits” value turned out to be 7, the “KinomeScan S(10) number of hits” value turned out to be 32 and the “KinomeScan S(35) number of hits” value is listed as 67. Besides, in the assay with kinases (500 nM), the “KinomeScan S(1) number of hits” value was 45, the “KinomeScan S(10) number of hits” value is on record as 105 and the “KinomeScan S(35) number of hits” value turned out to be 143. Also, in the assay on β-catenin (1 μg/mL), the “% β-catenin induction” value is given as 100%.
